In the NIST ThermoML archive (doi:10.1021/je500594z):

Legend:
[1] = 101 kPa, Liquid; for viscosity: Falling or rolling sphere viscometry; for speed of sound: Sing-around technique in a fixed-path interferometer; for mass density: Vibrating tube method
[2] = xn = mol fraction of the nth substance listed; settings: 101 kPa, Liquid, x2 = 0; for viscosity: Falling or rolling sphere viscometry; for speed of sound: Sing-around technique in a fixed-path interferometer; for mass density: Vibrating tube method

CCO [ethanol]
[1]
Settings | mass density [kg/m3] | speed of sound [m/s] | viscosity [mPa·s]
278.15 K | 802.39 | 1212.9 | 1.59
298.15 K | 785.32 | 1143.1 | 1.08
318.15 K | 767.84 | 1075.7 | 0.77
338.15 K | 749.54 | 1009.4 | 0.56

CCO [ethanol] + CCCC[n+]1ccn(C)c1.O=S(=O)([N-]S(=O)(=O)C(F)(F)F)C(F)(F)F
[2]
Settings | mass density [kg/m3] | speed of sound [m/s] | viscosity [mPa·s]
278.15 K | 802.39 | 1212.9 | 1.59
298.15 K | 785.32 | 1143.1 | 1.08
318.15 K | 767.84 | 1075.7 | 0.77
338.15 K | 749.54 | 1009.4 | 0.56

CCn1cc[n+](C)c1.O=S(=O)([N-]S(=O)(=O)C(F)(F)F)C(F)(F)F
[1]
Settings | mass density [kg/m3] | speed of sound [m/s] | viscosity [mPa·s]
278.15 K | 1538.23 | 1284.9 | 75.08
298.15 K | 1517.76 | 1240.1 | 32.02
318.15 K | 1497.65 | 1196.6 | 17.32
338.15 K | 1477.86 | 1155.8 | 10.82

CCCCCC[n+]1ccn(C)c1.O=S(=O)([N-]S(=O)(=O)C(F)(F)F)C(F)(F)F
[1]
Settings | mass density [kg/m3] | speed of sound [m/s] | viscosity [mPa·s]
278.15 K | 1390.3 | 1274.6 | 211.31
298.15 K | 1371.64 | 1226.8 | 70.46
318.15 K | 1353.31 | 1182 | 30.22
338.15 K | 1335.25 | 1139.3 | –

CCCC[n+]1ccn(C)c1.O=S(=O)([N-]S(=O)(=O)C(F)(F)F)C(F)(F)F
[1]
Settings | mass density [kg/m3] | speed of sound [m/s] | viscosity [mPa·s]
278.15 K | 1453.69 | 1273.8 | 139.82
298.15 K | 1434.23 | 1227.5 | 51.22
318.15 K | 1415.13 | 1184 | 24.36
338.15 K | 1396.35 | 1142.7 | 13.94

CCO [ethanol] + CCCCCC[n+]1ccn(C)c1.O=S(=O)([N-]S(=O)(=O)C(F)(F)F)C(F)(F)F
[2]
Settings | mass density [kg/m3] | speed of sound [m/s] | viscosity [mPa·s]
278.15 K | 802.39 | 1212.9 | 1.59
298.15 K | 785.32 | 1143.1 | 1.08
318.15 K | 767.84 | 1075.7 | 0.77
338.15 K | 749.54 | 1009.4 | –

CCO [ethanol] + CCn1cc[n+](C)c1.O=S(=O)([N-]S(=O)(=O)C(F)(F)F)C(F)(F)F
[2]
Settings | mass density [kg/m3] | speed of sound [m/s] | viscosity [mPa·s]
278.15 K | 802.39 | 1212.9 | 1.59
298.15 K | 785.32 | 1143.1 | 1.08
318.15 K | 767.84 | 1075.7 | 0.77
338.15 K | 749.54 | 1009.4 | 0.56
